Experimental data published in patent EP0346108A2, “Anti-infective nucleosides” (THE WELLCOME FOUNDATION LIMITED, priority 1988, dated 1989).

Columns and labels:
[1] = Determination of oral bioavailability by urinary recovery as parent compound; details: gavage, 50 mg/kg; urine collected for 24 and 48 hours post-dose
Experimental: Long Evans Rats were administered the compound to be tested by gavage at a dose of 50 mg/kg. The urine was collected for 24 and 48 hours post-dose, ultrafiltered, and analysed by reverse-phase high-pressure liquid chromatography. The oral bioavailability of the compound was expressed as the percent of the dose excreted in the urine as the parent unesterified compound.

[2] = test system: Varicella Zoster Virus (VZV); test: VZV plaque reduction assay in monolayers of MRC5 cells; format: cell-based; details: MRC5 cells (human embryonic lung), read-out: ID₅₀(µm) VZV
Experimental: Varicella Zoster Virus (VZV) is assayed in monolayers of MRC5 cells (human embryonic lung) in multiwell trays. Activity of compounds is determined in the plaque reduction assay, in which a cell monolayer is infected with a suspension of VZV. A range of concentrations of the compound to be tested (of known molarity) is then incorporated into the cell monolayer. Plaque numbers of each concentration are expressed as percentage of the control and a dose-response curve is drawn. From this curve the 50% inhibitory concentration (IC₅₀) is estimated.

Vero cells = test: Cell toxicity, cell growth inhibition assay (MTT uptake); format: cell-based; details: 50% inhibition of cell viability at 96 hours
Experimental: Cell toxicity is assessed in cell growth inhibition assay. Subconfluent cultures of Vero cells grown on 96-well microtiter dishes are exposed to different dilutions of drug, and cell viability determined daily on replicate cultures using uptake of a tetrazolium dye (MTT). The concentration required for a 50% inhibition of cell vaibility at 96 hours is termed CCID₅₀.

Row | SMILES | Urinary Recovery (% of dose) as parent compound [1] | IC50 [2] | CCID₅₀ (Vero cells)
1 | CC#Cc1cn([C@@H]2O[C@H](COC(=O)C(C)C)[C@@H](O)[C@@H]2O)c(=O)[nH]c1=O [Example 1, 1-(5-0-Isobutyryl-β-D-arabinofuranosyl)-5-prop-1-ynyluracil] | 40.35 % of dose |  | 
2 | CC#Cc1cn([C@@H]2O[C@H](COC(=O)[C@@H](N)C(C)C)[C@@H](O)[C@@H]2O)c(=O)[nH]c1=O [Example 20, 5-Prop-1-ynyl-1-(5-0-L-valyl-β-D-arabinofuranosyl)uracil] | 35.90 % of dose | < 1000 nM | >500
